These results are taken from patent publication US8680119B2, “Ethers, secondary amines and derivatives thereof as modulators of the 5-HT2A serotonin receptor useful for the treatment of disorders related thereto” (Arena Pharmaceuticals, Inc., priority 2006, dated 2014).

For one experiment, the system named is diabetic rats. The conditions noted are these: range stated for all three drugs; cited from earlier work.
The target in the next experiment is human 5-HT2A receptor (Homo sapiens (Human), UniProt P28223). The experiment is described as follows: [125I]DOI radioligand binding assay. The conditions noted are these: 0.5 nM [125I]DOI, COS7 membranes with recombinant human 5-HT2A receptor. The method, then:
For the IP accumulation assay (Example 3), HEK293 cells were transfected while for the DOI binding assay (Example 4) COS7 cells were transfected. Several protocols well known in the art can be used to transfect cells. The following protocol is representative of the transfection procedures used herein for COS7 or 293 cells.
On day one, COS-7 cells were plated onto 24 well plates, usually 1×10^5 cells/well or 2×10^5 cells/well, respectively. On day two, the cells were transfected by first mixing 0.25 μg cDNA in 50 μL serum-free DMEM/well and then 2 μL lipofectamine in 50 μL serum-free DMEM/well. The solutions (“transfection media”) were gently mixed and incubated for 15-30 minutes at room temperature. The cells were washed with 0.5 mL PBS and then 400 μL of serum free media was mixed with the transfection media and added to the cells. The cells were then incubated for 3-4 hours at 37° C./5% CO2. Then the transfection media was removed and replaced with 1 mL/well of regular growth media.
Compounds of the invention were tested for their ability to bind to a 5-HT2A receptor clone membrane preparation using a radioligand binding assay. Briefly, COS cells were transiently transfected with a pCMV expression vector containing a human 5-HT2A receptor (for the sequence of the receptor see U.S. Pat. No. 6,541,209, SEQ ID NO:24) as described in Example 2.
COS7 cells transfected with recombinant human 5-HT2A receptors were cultured for 48 hr post transfection, collected, washed with ice-cold phosphate buffered saline, pH7.4 (PBS), and then centrifuged at 48,000×g for […] at 4° C. The cell pellet was then resuspended in wash buffer containing 20 mM HEPES pH 7.4 and 0.1 mM EDTA, homogenized on ice using a Brinkman polytron, and recentrifuged at 48,000×g for 20 min. at 4° C. The resultant pellet was then resuspended in 20 mM HEPES, pH 7.4, homogenized on ice, and centrifuged (48,000×g for 20 min at 4° C.). Crude membrane pellets were stored at −80° C. until used for radioligand binding assays.
Radioligand binding assays for human 5-HT2A receptor was conducted using the 5-HT2 agonist [^125I]DOI as radioligand. To define nonspecific binding, 10 μM DOI was used for all assays. For competitive binding studies, 0.5 nM [^125I]DOI was used and compounds were assayed over a range of 0.01 nM to 10 μM. Assays were conducted in a total volume of 200 μl in 96-well Perkin Elmer GF/C filter plates in assay buffer (50 mM Tris-HCl, pH 7.4, 0.5 mM EDTA, 5 mM MgCl2, and 10 μM pargyline). […] Plates were then dried at room temperature and counted in a Wallac microBeta scintillation counter.

`Cc1nc2sccn2c(=O)c1CCN1CCC(=C(c2ccc(F)cc2)c2ccc(F)cc2)CC1` [ritanserin]: the “correction of a 19.8% sciatic motor conduction deficit” value with diabetic rats is given as 82.6-99.7%.
Turning to `COc1cccc(CCc2ccccc2OCC(CN(C)C)OC(=O)CCC(=O)O)c1` (stereo not shown) [sarpogrelate], the “correction of a 19.8% sciatic motor conduction deficit” value in the experiment on diabetic rats is on record as 82.6-99.7%.
In the case of `O=CN1CCC(C(=O)NCCN2CCC(=C3c4ccccc4C=Cc4ccccc43)CC2)CC1` [AT-1015], the “correction of a 19.8% sciatic motor conduction deficit” value with diabetic rats is 82.6-99.7%.
Consider `COCCNC(=O)COc1ccc(NC(=O)c2cccc(C(F)(F)F)c2)cc1-c1c(Cl)cnn1C` [Compound 50, N-{3-(4-Chloro-2-methyl-2H-pyrazol-3-yl)-4-[(2-methoxy-ethylcarbamoyl)-methoxy]-phenyl}-3-trifluoromethyl-benzamide], for which the IC50 on human 5-HT2A receptor amounted to 52 nM.
As for `COc1cccc(C(=O)Nc2ccc(OCCO)c(-c3c(Cl)cnn3C)c2)c1` [Compound 68, N-[3-(4-Chloro-2-methyl-2H-pyrazol-3-yl)-4-(2-hydroxy-ethoxy)-phenyl]-3-methoxy-benzamide], the IC50 on human 5-HT2A receptor came to 0.51 nM.
Consider `COCCOc1ccc(NC(=O)c2cccc(C(F)(F)F)c2)cc1-c1ccnn1C` [Compound 52, N-[4-(2-Methoxy-ethoxy)-3-(2-methyl-2H-pyrazol-3-yl)-phenyl]-3-trifluoromethyl-benzamide], for which, on human 5-HT2A receptor, the IC50 was 4.4 nM.
Turning to `COCCNCCOc1ccc(NC(=O)c2cccc(C(F)(F)F)c2)cc1-c1c(Cl)cnn1C` [Compound 15, N-{3-(4-Chloro-2-methyl-2H-pyrazol-3-yl)-4-[2-(2-methoxy-ethylamino)-ethoxy]-phenyl}-3-trifluoromethyl-benzamide], at human 5-HT2A receptor, the half-maximal inhibitory concentration (IC50) was 0.082 nM.
